Measured values published in patent US10154974B1, “Use of abscisic acid for the prevention and treatment of malaria” (The Regents of the University of California, priority 2015, dated 2018).

How the values were obtained:
P. yoelii 17XNL = P. yoelii 17XNL parasitemia in C57Bl/6 and casp1-/- mice; type: in vivo
Protocol: Daily parasitemia of three separate cohorts of mice with and without ABA supplementation. 3 to 5 mice were used per treatment in each infection. Data were analyzed by one-sided, unpaired t-test. # p<0.1, * p<0.05, ** p<0.005.
FIG. 28A-B illustrate that ABA has no effect on parasitemia in caspase-1 knockout mice. […] 4-5 mice were used per treatment group. Data were analyzed by unpaired t-test. # p<0.1 * p<0.05.

P. falciparum = P. falciparum infection of A. stephensi fed a supplemented infected bloodmeal; type: in vivo; conditions: for reduction of infection prevalence in A. stephensi: relative to control
Protocol: For P. falciparum infections A. stephensi were fed on a 1:1 ratio of P. falciparum-infected RBCs containing a treatment or diluent control and provided in a Hemotek Insect Feeding System (Discovery Workshops). ABA was eluted in 100% ethanol and stored at −20 C for up to 6 months. ABA stock was diluted with PBS and added into blood immediately before feeding for final concentrations of 10 nM and 100 nM. For L-NAME feeds mosquitoes were maintained on sugar cubes and water pads containing 1 mg/mL L-NAME for 72 hours before the feed and throughout the course of infection. Infection prevalence data were analyzed by Fisher's Exact Test. Oocyst intensities were analyzed by Mann-Whitney test.

[1] = tested on: prospero, escargot, ATG6, ATG8; experiment: Expression of midgut epithelial cell turnover genes; type: in vivo, Anopheles stephensi; conditions: P. falciparum-fed mosquito midguts
Protocol: Data are shown as fold changed compared to control-treated mosquitoes. Each dot represents one replicate of 10 pooled midguts. Data were analyzed by one sample t-test. * p<0.05. nd indicates the prospero was not detectable at 72 or 96 hours.

TAK = TAK phosphorylation in mosquito midgut; type: in vivo, Anopheles stephensi; conditions: ABA-supplemented parasite-fed mosquito midguts
Protocol: FIG. 11A-D illustrate that ABA decreases P. falciparum infection by increasing TAK phosphorylation. […] Each dot represents one replicate of 15 pooled midguts. […] Phosphorylated TAK levels were analyzed by one sample t-test, NOS expression by Wilcoxon matched-pairs signed rank test, and infection prevalence by Fisher's exact test. * p<0.05.

[2] = tested on: peroxisome proliferator activated receptor gamma (PPARγ); experiment: PPARγ transcript levels in mouse liver and spleen; type: in vivo, mice; conditions: day 7 of infection
Protocol: (§1) For mosquito immune gene expression, 20 midguts were dissected from mosquitoes in each treatment group at 1, 2, 4, 6, 8 and 24 hours post-feeding. Midguts were sonicated and stored in Trizol at −20° C. for up to a week before RNA was extracted according to manufacturer's instructions. cDNA synthesis was carried out using QantiTect Reverse Transcription Kit (Qiagen) and 200 ng of cDNA used per reaction for qRT-PCR with Sybr Green (Applied Biosystems). Fold changes in expression levels were calculated using the comparative threshold cycle method. Data were normalized to the housekeeping gene ribosomal protein S7 and to the control treatment. Primers and cycling conditions for AsNOS, defensin, LRIM, TEP1, and APL1 were as previously described (Hauck E S, et al. Microbes Infect. 2013; 15:775-87). For gene expression analysis of mouse liver and spleen, organs were flash frozen after necropsy and stored at −80° C. before RNA was extracted in Trizol and cDNA synthesized. Real-time PCR was performed using TaqMan probe-based expression assays for mouse NOS2, PPARγ (Mm00440940), and β-actin (Applied Biosystems) with volumes and cycling conditions as previously described (Chau et al., Infect Immun, 2013, 81:3515-26). Samples were analyzed in triplicate with 250 ng of cDNA per reaction to confirm uniformity of amplification. […] All expression data were analyzed by one sample t-test.

human macrophages = conditions: in vitro; cited from earlier work
P. falciparum 3D7 = experiment: P. falciparum gametocyte formation assay; type: cell-based; conditions: 10 nM or 100 nM ABA, 6, 8 or 10 days post culture synchronization
Protocol: Studies of the effects of ABA on gametocyte formation were performed with P. falciparum 3D7 engineered to express GFP under the control of alpha tubulin II and Pfs25 promoters. Parasite cultures were synchronized using sorbitol. At 48 hours post-synchronization, 200 μL aliquots of parasite culture and complete RPMI medium were placed in a 96-well flat-bottomed plate and treated with 10 nM ABA, 100 nM ABA, or a diluent control. Media and treatments were refreshed every 48 hours. At 4, 6 and 8 days after the start of treatment, separate aliquots were harvested, media was removed, and replaced with 10% formalin for 1 hour at room temperature. Formalin was removed and replaced with PBS before gametocyte levels were measured by flow cytometry using a FACS Calibur flow cytometer (BD Biosciences) with a GFP filter. Four replicates were carried out, each using a separate parasite culture passage. Relative changes in gametocyte numbers were normalized to controls set at 1 and analyzed by one-sample t-test.

influenza = conditions: ABA treatment; cited from earlier work
AsNOS = AsNOS transcript levels in mosquito midgut; type: in vivo, Anopheles stephensi; conditions: midguts, relative to controls, 4-6 hours post-feeding
Protocol: as §1, with “For gene expression analysis of mouse liver and spleen, organs were flash frozen after necropsy and stored at −80° C. before RNA was extracted in Trizol and cDNA synthesized. Real-time PCR was performed using TaqMan probe-based expression assays for mouse NOS2, PPARγ (Mm00440940), and β-actin (Applied Biosystems) with volumes and cycling conditions as previously described (Chau et al., Infect Immun, 2013, 81:3515-26).” left out
Transcript levels of a panel of immune genes previously described to play a role in the mosquito immune response to malaria parasites were examined. […] Mosquitoes were provided with a P. falciparum-infected bloodmeal supplemented with 100 nM ABA or with an equivalent volume of diluent as control, then analyzed at 1-24 hours post feeding.

[3] = tested on: nitric oxide synthase (NOS); experiment: NOS transcript levels in mouse liver and spleen; type: in vivo, mice; conditions: day 7 of infection
Protocol: as §1

[4] = Whole liver and spleen weights; type: in vivo, mice; conditions: day 9 post-infection with P. yoelii 17XNL
Protocol: FIG. 20A-C illustrate that ABA supplemented mice have reduced hepatosplenomegaly and evidence of improved liver function. Shown are weights of whole liver (FIG. 20A) and spleen (FIG. 20B) from control and ABA-supplemented mice on day 9 post-infection with P. yoelii 17XNL. Also shown are blood urea nitrogen levels (FIG. 20C) in plasma of uninfected and P. yoelii-infected, control and ABA-supplemented mice on day 11 post-infection. Data were analyzed by unpaired t-test.

Anopheles stephensi = experiment: Mosquito egg production and viability; type: in vivo; conditions: single ABA-supplemented uninfected bloodmeal
Protocol: The egg laying rate and hatch rate were analyzed using Fisher's exact test. […] Each dot represents the clutch size of a single mosquito. Clutch size was analyzed by unpaired t-test.

With `CC1=CC(=O)CC(C)(C)[C@@]1(O)/C=C/C(C)=C\C(=O)O` (racemic) [ABA, (2Z,4E)-5-[(1S)-1-hydroxy-2,6,6-trimethyl-4-oxocyclohex-2-en-1-yl]-3-methylpenta-2,4-dienoic acid] the parasitemia (P. yoelii 17XNL; C57Bl/6 mice, three cohorts) was “significantly reduces”, the parasitemia (P. yoelii 17XNL; caspase-1 knockout mice) was “no effect” and the “reduction of infection prevalence in A. stephensi” value (P. falciparum; 10 nM ABA in bloodmeal) was 30%. The “mean oocysts per midgut” value (P. falciparum; 10 nM ABA, among infected mosquitoes (controls 2.1)) was 1.6, the “reduction of infection prevalence in A. stephensi” value (P. falciparum; 100 nM ABA in bloodmeal) was 36% and the “expression of genes involved in midgut epithelial cell turnover” value [1] was “reduces expression”. For the same compound, the TAK phosphorylation (TAK) was “increasing”, the “transcript levels of PPARγ” value [2] was “increased” and the “activation of human macrophages” value (human macrophages) was “activate”. The gametocyte levels (P. falciparum 3D7) was “no effect”, the vascular infiltrates (influenza) was “decreased” and the viral load (influenza) was “no effect”. For the same compound, the “AsNOS transcript levels induction” value (AsNOS) was “up to 13 fold”, the “transcript levels of nitric oxide synthase (NOS)” value [3] was “decreased” and the “hepatosplenomegaly (weights of whole liver and spleen)” value [4] was “reduced”. For the same compound, the “egg production or viability” value (Anopheles stephensi) was “does not alter”.
